Experimental data as given in ChEMBL document CHEMBL4616648, “Irijimasides A-E, Macrolide Glycosides from an Okeania sp. Marine Cyanobacterium” (J Nat Prod, 2020).

What was measured:
Mus musculus = organism: Mus musculus; test: Inhibition of RANKL-induced osteoclastogenesis in mouse RAW264 cells assessed as reduction in TRAP activity incubated for 4 days; type: functional, cell-based
[1] = Cytotoxicity against mouse RAW264 cells at 3 to 30 uM by MTT assay; type: cell-based

Structure (SMILES)	inhibition (Mus musculus)	Activity [1]
C=CCC/C=C/C=C/C1C/C(C)=C/[C@@H](OC)C[C@@H]2O[C@@](O)(CC(O[C@@H]3O[C@@H](C)[C@H](O)[C@@H](O)[C@H]3OC)[C@@H]2C)[C@H](C)C(=O)O1 (stereo not given in full)	Dose-dependent effect	Non-Toxic
C=CCC/C=C/C=C/C1C/C(C)=C/[C@@H](OC)C[C@H]2CC(O[C@@H]3O[C@@H](C)[C@H](O)[C@@H](OC)[C@H]3OC)C[C@](O)(O2)[C@H](C)C(=O)O1 (stereo not given in full)	Dose-dependent effect	Non-Toxic
C#CCCC/C=C/C=C/C1C/C(C)=C/[C@@H](OC)C[C@@H]2O[C@@](O)(CC(O[C@@H]3O[C@@H](C)[C@H](O)[C@@H](O)[C@H]3OC)[C@@H]2C)[C@H](C)C(=O)O1 (stereo not given in full)	Dose-dependent effect	Non-Toxic
C=CCC/C=C/C=C/C1C/C(C)=C/[C@@H](OC)C[C@@H]2O[C@@](O)(CC(O[C@@H]3O[C@@H](C)[C@H](O)[C@@H](OC)[C@H]3OC)[C@@H]2C)[C@H](C)C(=O)O1 (stereo not given in full)	Dose-dependent effect	Non-Toxic
C=CCC/C=C/C=C/C1C/C(C)=C/[C@@H](OC)C[C@@H]2O[C@](O)(CC(=O)O1)CC(O[C@@H]1O[C@@H](C)[C@H](O)[C@@H](OC)[C@H]1OC)[C@@H]2C (stereo not given in full)	Dose-dependent effect	Non-Toxic
